Data reported in patent publication US20230129651A1, “HAIRPIN STRUCTURE NUCLEIC ACID MOLECULES CAPABLE OF MODULATING TARGET GENE EXPRESSION AND USES THEREOF” (KOREA ADVANCED INSTITUTE OF SCIENCE AND TECHNOLOGY, priority 2021, published 2023).
“Also recorded” adds a separate entry of the source. {Cy5.5} = Cy5.5 fluorophore label

Tests used:
[1] = tested on: FLT3 mutated AML cell line MV4-11; assay: Cell viability of MV4-11 after transfection; format: cell-based
Description: (§1) The miRNA triggers were assayed for cytotoxicity and apoptosis induction, using the CCK-8 (Cell Counting Kit-8) (Dojindo, Kumamoto, Japan) according to the manufacturer's instruction. Cells were incubated in 96-well plates (5×10^3 cells/well) at 37° C. for 24 hours under a 5% CO2 atmosphere, followed by transfection. Three days after transfection, the medium was removed. A 10-fold dilution of CCK-8 solution in DMEM was added to the cells which were then incubated at 37° C. for 2 hours. After incubation, absorbance was read at 450 nm on Tecan Infinite M200 pro microplate reader (Mnnedorf, Switzerland).
A linear miRNA trigger (Mcl-1_155_155 or Bcl-2_155_155) which could bind to miR-155 and target mcl-1 or bcl-2 gene was prepared and transfected into the FLT3 mutated AML cell line MV4-11 which was then measured for cell viability. The results are depicted in FIGS. 31a and 31b. Sequences are listed in Tables 19 and 21 for the linear miRNA triggers prepared above, and in Tables 18 and 19 for the controls Luc-Luc-Luc and luc-155-155, respectively. Every nucleotide of the triggers and the controls were chemically modified with 2′-OMe.

[2] = tested on: miR-155; assay: miR-155 expression in FLT3-ITD mutated AML cell line after treatment with AML therapeutic agents; format: cell-based; details: NOLM-14; IC50 dose, 37° C., 72 hours
Description: The FLT3-ITD mutated AML cell line (NOLM-14) was treated with an IC50 dose of cytarabine, azacitidine, decitabine, venetoclax, or gilteritinib, which is used as standard therapeutic agents for AML, at 37° C. for 72 hours, followed by measuring expression levels of miR-155.

[3] = tested on: Hela-141 cells; assay: Cell viability / apoptosis of Hela-141 cells after transfection; format: cell-based
Description: as §1
(§2) The linear miRNA triggers or siRNAs (siLuc and siMcl-1) prepared above were transfected into Hela, Hela-141, and Hela-200c cells which were then measured for cell viability. The results are depicted in FIG. 15.
(§3) The hairpin miRNA triggers prepared above were transfected into Hela and Hela-141 cells which were then assayed for apoptosis. As a control, the siRNA (siMcl-1; Table 14) which can repress the expression of mcl-1 was transfected to Hela and Hela-141 cells and measured for apoptotic activity.

[4] = tested on: Hela-200c cells; assay: Cell viability / apoptosis of Hela-200c cells after transfection; format: cell-based
Description: as §1, §2

[5] = tested on: Mcl-1 protein; assay: Western blotting of Mcl-1 protein in Hela-141 cells; format: cell-based; details: 5 to 120 nM
Description: (§4) miRNA triggers were transfected into cells in the same manner as in Reference Example 4. After 72 hours, the cells were collected using a cell scraper and lysed with a RIPA buffer (NaCl 150 mM, EDTA 5 mM, Tris 50 mM, NP-40 1.0%, sodium deoxycholate 0.5%, SDS 0.1%). The cell lysate was sonicated 15 times, each for 20 sec, with a halt for 30 sec every sonication. Following centrifugation at 5,000 g for 5 min, the supernatant was taken and used to extract proteins therefrom. A total of 30-40 μg of protein sample was separated in 10-15% SDS-PAGE gel and transferred onto a PVDF membrane through a semi-dry blotting system. The membrane was blocked for 1 hour in 5% skimmed milk and incubated for 2 hours with a 1,000-fold dilution of a primary antibody in, 1% skimmed milk. […] The membrane incubated with the secondary antibody was washed three times with 1×PBST for 10 min each wash, and then reacted with Clarity Western ECL Substrate (#1705061, Bio-Rad), after which images were obtained and analyzed using ChemiDoc (Bio-rad, Hercules, USA).
A linear miRNA trigger (Mcl-1-141-141; Table 15) that could bind to miR-141 and target mcl-1 was prepared while a linear miRNA trigger (Luc-141-141; Table 9) that could bind to miR-141 and target Luc (luciferase) was used as a control. […] Then, proteins were extracted from the Hela-141 cells and quantitatively analyzed for Mcl-1 protein level by western blotting. […]

[6] = tested on: Hela cells; assay: Cell viability / apoptosis of Hela cells after transfection; format: cell-based
Description: as §1, §2, §3

[7] = tested on: MCF-7 breast cancer cells; assay: Cell viability of MCF-7 after transfection; format: cell-based; details: siRNA 60 nM
Description: as §1
An siRNA targeting bcl-2, bcl-xL, or mcl-1 was transfected into MCF-7 breast cancer cells and PANC-1 pancreatic cancer cells. By using qRT-PCR, establishment was made of a condition under which the expression of each target gene is decreased by 80% or more (transfection was performed at a concentration of 60 nM with the aid of Lipofectamine). […] Under the same condition of decreasing the expression of each target gene by 80% or more, the cells transfected with the siRNAs were measured for apoptosis, and the results are depicted in FIGS. 14a and 14b.
Linear miRNA triggers that could bind to miR-141 or let7f and target bcl-xL or mcl-1 were prepared and transfected alone or in combination into the breast cancer cell line MCF-7 which was then measured for cell viability. […]

[8] = tested on: cleaved PARP; assay: Western blotting of apoptotic marker in HL-60 after siRNA knockdown; format: cell-based; details: HL-60 cells
Description: as §4, with “USA). […]” for “USA).”

[9] = FACS detection of Cy5.5 in hematopoietic origin cells of injected mice; format: in vivo, C57BL/6 (B6) mice
Excerpt: Day 4 after miRNA trigger injection in Example 6-2, mice in the miRNA trigger-administered test group (N=4) and the PBS-administered control (N=4) were sacrificed and specimens (blood cells) were taken from peripheral blood vessels, the spleen, and the bone marrow (femur blood cells). Erythrocytes were removed using an RBC lysis buffer.
The cells in peripheral blood sample were gated through three steps (step 1: debris removal, step 2: selection of single blood cell population, step 3: Cy5.5 detection) to select single blood cells of quality. Through FACS, blood cells retaining Cy5.5 were identified. The results are depicted in FIGS. 20a to 20c.
Spleen-derived hematopoietic cells and bone marrow hematopoietic cells of mice were gated in the foregoing manner and Cy5.5 was detected. The results are depicted in FIGS. 21 and 22. As shown in FIGS. 21a to 21c, 8.7-13.7% of total spleen-derived hematopoietic cells expressed Cy5.5. As in peripheral blood cells, Cy5.5 was detected mainly in lymphocytes and monocytes of the spleen-derived hematopoietic cells.

[10] = tested on: MOLM-14, MV4-11 and Hela cells; assay: Fluorescence detection after transfection of Cy5.5-labeled miRNA trigger into cells (IVIS 100); format: cell-based; details: Lipofectamine
Description: With the aid of Lipofectamine, the linear miRNA trigger (5′-Cy5.5-miR-155-miR-155-PKR-3′) was transfected into the FLT3-ITD mutant AML cell lines MOLM-14 and MV4-11 and the solid cancer cell line Hela. […] Subsequent animal tests were performed with the trigger.

[11] = In vivo imaging after tail vein injection of Cy5.5-labeled miRNA trigger; parameters: species or system C57BL/6 (B6) mice
Description: As a negative control, PBS was injected at a dose of 200 μl into mice.
Days 1, 2, and 4 after miRNA trigger injection, in vivo imaging was performed using IVIS 100 (PerkinElmer).

Mcl-1_155_155: linear miRNA trigger binding miR-155 and targeting mcl-1; SEQ ID NO 105 (UUAUGUUUCAGGUUCAGGGGGAUUAUGUUUCAGGUUCAGGGGGACCGAACUACGUAGC; all 2'-O-methyl, backbone not given here)
apoptosis (cell viability) [1]: induce MV4-11 to undergo apoptosis

Nc1ccn([C@@H]2O[C@H](CO)[C@@H](O)[C@@H]2O)c(=O)n1 [cytarabine]
miR-155 expression [2]: did not repress miR-155 express

Mcl-1_141_141: linear miRNA trigger binding miR-141 and targeting Mcl-1 gene; SEQ ID NO 65 (110 in Table 24) (CCAUCUUUACCUCACAGUGUUACCAUCUUUACCUCACAGUGUUACCGAACUACGUAGC; all 2'-O-methyl, backbone not given here)
apoptosis induced [3]: about 40% | apoptosis / cell viability (in words) [4]: no significant influence on cell viability | Mcl-1 protein level compared to control Luc-141-141 [5]: significantly decreased in Mcl-1 protein level

siMcl-1: siRNA targeting mcl-1; SEQ ID NO 64 (AAAUUCGAUACUUCCUUCG; listed as RNA, chemistry not given here) [reference compound]
apoptosis / cell viability (in words) [3]: induced apoptosis; also recorded: brought about an apoptotic effect | apoptosis / cell viability (in words) [4]: induced apoptosis | apoptosis / cell viability (in words) [6]: induced apoptosis; also recorded: brought about an apoptotic effect | cell viability / apoptosis after siRNA (in words) [7]: decreased in cell viability

siBcl-2: siRNA targeting bcl-2; SEQ ID NO 62 (AUCAAUCUUCAGCACUCUC; listed as RNA, chemistry not given here)
expression of apoptotic marker cleaved PARP [8]: upregulated

B1: Cy5.5_PKR-155_155: linear miRNA trigger binding miR-155 and targeting PKR, labeled with Cy5.5 fluorophore; SEQ ID NO 69 (nucleic acid)
chain: UUAUGUUUCAGGUUCAGGGGGAUUAUGUUUCCAGGUUCAGGGGGAUAUGUGAGGCAGAGAACGA
modifications: all 2'-O-methyl, 5' {Cy5.5}, backbone not given here
rate of bone marrow cells expressing Cy5.5 ([9]; bone marrow, day 4): 1.0-2.0% | Cy5.5 detected in gated lymphocytes ([9]; bone marrow, lymphocytes gated through 4 steps, day 4): 5.4-9.6% | Cy5.5 detection in blood cells (FACS profile) ([9]; day 4 after injection): detected in blood cells, especially lymphocytes and monocytes | rate of Cy5.5 detection based on total number of single blood cells ([9]; peripheral blood, day 4): 6.2-15.9% | spleen-derived hematopoietic cells expressing Cy5.5 ([9]; spleen, day 4): 8.7-13.7% | fluorescence in transfected cells [10]: Fluorescence was detected | time Cy5.5 fluorescence detected in the mouse body [11]: ≥ 4 days | toxicity over the period of in vivo imaging [11]: particular toxicity was detected from none of the mice | organs in which Cy5.5 was detected ([11]; Invivofectamine, 120 nM, days 1, 2 and 4): detected in main organs including the liver, the spleen, the bone marrow, and the heart, and the hematopoietic organ
